Results taken from publication PMC7509492, “To What Extent Do Fluorophores Bias the Biological Activity of Peptides? A Practical Approach Using Membrane-Active Peptides as Models” (Frontiers in Bioengineering and Biotechnology, 2020).
Like-named read-outs stand apart in the source and are kept apart here. Ends that are not written are not given here. Peptide text beside a SMILES is read from it. * marks the point of attachment. RhodamineB = CCN(CC)c1ccc2c(-c3ccccc3C(=O)*)c3ccc(=[N+](CC)CC)cc-3oc2c1; X1 = CC[N+]1=C(C=CC=C2N(CCCCCC(=O)*)c3ccccc3C2(C)C)C(C)(C)c2ccccc21; 5FAM = O=C1OC2(c3ccc(O)cc3Oc3cc(O)ccc32)c2ccc(C(=O)*)cc21

Key:
human RBCs [1] = conditions: pH 7.4
Protocol: (§6) Fresh human blood was collected in EDTA tubes and centrifuged at 1,000 × g for 10 min at 4°C. The supernatant was discharged, and the pellet containing RBCs was washed three times with 1× PBS (137 mM NaCl, 2.7 mM KCl, 10 mM Na2HPO4, and 1.8 mM KH2PO4, pH 7.4) and resuspended in 1× PBS to obtain a 2.0% (v/v) suspension. Then, RBCs were added to centrifuge tubes containing two-fold serially diluted peptides to a final concentration ranging from 0.01 to 100 μM. The suspension was incubated for 24 h at 37°C with gentle stirring. After that, samples were centrifuged for 2 min at 1,000 × g. Supernatants were transferred to 96-well plates, and the hemoglobin released measured by absorbance at 570 nm in an Infinite F200 TECAN plate reader. 1× PBS with no peptides and Triton X-100 at 1 and 4% (v/v) were used as negative and positive controls, respectively. Hemolytic activity (%) was determined using the following equation:
(§7) (2) Hemolyticactivity(%)=AbsPT-AbsNC/AbsPC-AbsNC
(§8) where, AbsPT is the absorbance of treated samples, AbsNC is the absorbance from negative control, and AbsPC absorbance from positive control.
(§9) HC50 values were determined using the GraphPad Prism 7.0 software using a log(inhibitor) vs. normalized response. Experiments were performed on different days using independent blood donors.
(§10) (range from 0.01 to 100 μM). The percentage of hemolysis was determined by the absorbance of hemoglobin released into the supernatant. Melittin was included as a control peptide with hemolytic properties. The values were obtained from triplicates of three independent experiments. Error bars, S.D.

[2] = system: HBEC-5i cells (in vitro BBB model); experiment: In vitro BBB translocation across HBEC-5i transwell monolayer; assay type: in vitro ADME, human; conditions: HBEC-5i monolayer on PET transwell 1.0 μm pores, apical to basolateral, 10 μM, 24 h, DMEM:F12 without phenol red, mean ± SD, triplicates of three independent experiments
From the text: HBEC-5i cells were allowed to grow until confluence in a gelatin-coated T-flask. Then, cells were carefully harvested with trypsin-EDTA (Gibco/Thermo Fisher, United States) and seeded 8,000 cells/well to 0.1% gelatin solution coated tissue culture inserts [transparent polyester (PET) membrane with 1.0 μm pores] for 24-well plates (BD Falcon, United States). During 8 days, the medium was changed every 2 days. After 8 days, cells were washed two times with 1× PBS and once with DMEM:F12 medium without phenol red (Gibco/Thermo Fisher, United States). Then, peptides diluted in DMEM:F12 medium without phenol red to a final concentration of 10 μM were added to the apical side of the in vitro BBB model (Figure 1). Experiments were performed on different days using independently grown cell cultures.
FIGURE 1 Scheme of an in vitro BBB transwell membrane system. Human brain endothelial cells (HBEC-5i) are cultured as monolayer on the apical side of a polyester (PET) transwell insert (1.0 μm pore size). Then, 10 μM of peptides are added to the apical side, and the translocation measured as the amount detected on the basolateral side.
The translocation of peptides labeled with different fluorophores was determined by fluorescence emission. After 24 h incubation, samples from the apical and basolateral side were collected and analyzed. Fluorescence was measured using the infinite F200 TECAN plate reader. The percentage (%) of translocation was calculated using the following equation:
(3) Translocation(%)=(Fi-Fcells/Fpeptide-FMedium)×100
Fi is the fluorescence intensity recovered, Fcells is the fluorescence intensity recovered from cells without peptide incubation, Fpeptide is the fluorescence intensity of total peptide initially added to the transwell apical side, and FMedium is the fluorescence intensity of the medium.
The translocation of unlabeled peptides was determined by the calculation of the respective area under the curve (AUC) in the reversed phase HPLC chromatograms. After 24 h incubation, samples from the apical and basolateral side were collected and analyzed by HPLC on a PerkinElmer Series 200 pump coupled to a PerkinElmer Series 200 UV/Vis Detector on a Luca C18 column (4.6 mm × 50 mm, 3 μm, Phenomenex, United States), eluting with linear gradients of HCOOH/MeCN (0.1%, v/v) into HCOOH/H2O (0.1%, v/v) over 15 min at 1 mL/min. UV detection was λ = 220 nm. The percentage (%) of translocation was calculated using the following equation:
(4) Translocation(%)=(AUCi/AUCpeptide)×100
AUCi is the AUC of peptide recovered and AUCpeptide is the AUC of total peptide initially added to the transwell apical side.

HBEC-5i cells = experiment: CellTiter-Blue cell viability assay, HBEC-5i; assay type: cell-based, human; conditions: peptide 0.01-100 μM, mean ± SD, triplicates of three independent experiments; for Cytotoxicity HBEC-5i cells IC10: Table 1, concentration causing 10% cell death; for Cytotoxicity HBEC-5i cells IC10 / Cytotoxicity HBEC-5i cells IC90: 24 h; for Cytotoxicity HBEC-5i cells IC90: Table 1, concentration causing 90% cell death; for IC50: Table 1, 24 h, read-out: Cytotoxicity HBEC-5i cells IC50
Protocol: (§1) Peptides cytotoxicity against both HBEC-5i and MDA-MB-231 cells was determined using CellTiter-Blue® Cell Viability Assay, according to the manufacturer’s instructions. The assay is based on the ability of viable cells to reduce resazurin into resorufin, a highly fluorescent metabolite. […] Therefore, using this methodology is possible to distinguish between metabolic and non-metabolic cells and indirectly determine the cytotoxicity of peptides. Briefly, HBEC-5i and MDA-MB-231 cells were carefully detached from T-flasks, as described previously, and seeded 15,000/100 and 10,000/100 μL, respectively, in 96-well plates (Corning, United States) and incubated for 24 h. After medium removal, cells were washed two times with 1× PBS and 100 μL of previously diluted peptides (range between 0.01 and 100 μM) in either DMEM or DMEM:F12 medium were added to MDA-MB-231 or HBEC-5i cells, respectively. After 24 h incubation, cells were washed two times with 1× PBS, and 20 μL of CellTiter-Blue® Reagent (diluted in 100 μL of medium) was added to each well and incubated for 3 h in a humidified atmosphere of 5% CO2 at 37°C. The fluorescence intensity was measured at λ with an excitation of 560 nm and maximum emission at 590 nm using the infinite F200 TECAN plate reader. Medium and 1% Triton X-100-containing medium were used as positive controls (100% cell viability) and negative controls (0% cell viability), respectively. Cell viability (%) was determined using the following equation:
(§2) (7) CellViability=FP-FNC/FPC-FNC×100
(§3) Fp is the fluorescence intensity of peptide-treated cells, FNC is the fluorescence intensity for negative controls, and FPC is the fluorescence intensity for positive controls.
(§4) Experiments were performed on different days using independently grown cell cultures.
(§5) FIGURE 4 In vitro cytotoxicity unlabeled- and labeled-peptides. (A,B) Cytotoxicity against HBEC-5i cells. (C,D) Cytotoxicity against MDA-MB-231 cells. 1.5 × 10^4 and 1.0 × 10^4 cells of HBEC-5i and MDA-MB-231 cells, respectively, were incubated with various concentrations of peptides (range from 0.01 to 100 μM). The percentage of viability was determined using CellTiter® Blue reagent assay. […] Error bars, S.D.

[3] = CellTiter-Blue cell viability assay, HBEC-5i; assay type: cell-based, human; conditions: human, HBEC-5i cells, Table 1, peptide 0.01-100 μM, mean ± SD, triplicates of three independent experiments, read-out: Cytotoxicity HBEC-5i cells IC50
Protocol: as §1, §2, §3, §4, §5

human RBCs [4] = experiment: Hemolytic activity on human red blood cells; conditions: 37°C; for Hemolytic activity HC10 / Hemolytic activity HC50 / Hemolytic activity HC90: Table 1, human RBCs in 1x PBS pH 7.4, 24 h, peptide 0.01-100 μM, mean ± SD, triplicates of three independent experiments; for Hemolytic activity HC10: concentration causing 10% hemolysis, hemoglobin absorbance 570 nm; for Hemolytic activity HC50: concentration causing 50% hemolysis; for Hemolytic activity HC50 / Hemolytic activity HC90: absorbance 570 nm; for Hemolytic activity HC90: concentration causing 90% hemolysis
Protocol: as §6, §7, §8, §9, §10

MDA-MB-231 cells = experiment: CellTiter-Blue cell viability assay, MDA-MB-231; assay type: cell-based, human; conditions: Table 1, concentration causing 10% cell death, 24 h, peptide 0.01-100 μM, mean ± SD, triplicates of three independent experiments
Protocol: as §1, §2, §3, §4, §5

[5] = CellTiter-Blue cell viability assay, MDA-MB-231; assay type: cell-based, human; conditions: human, MDA-MB-231 cells, mean ± SD, triplicates of three independent experiments; for IC90 at 24 h: Table 1, concentration causing 90% cell death, peptide 0.01-100 μM, read-out: Cytotoxicity MDA-MB-231 cells IC90; for IC50 at 24 h: Table 1, peptide 0.01-100 μM, read-out: Cytotoxicity MDA-MB-231 cells IC50
Protocol: as §1, §2, §3, §4, §5

[6] = labeled peptide, quantified by fluorescence emission

Row | Compound | Hemolytic activity HC10 (human RBCs [1]) | Hemolytic activity HC50 (human RBCs [1]) | Hemolytic activity HC90 (human RBCs [1]) | Translocation (%) [2, 6] | Cytotoxicity HBEC-5i cells IC10 (HBEC-5i cells) | CC50 at 24 h [3] | Cytotoxicity HBEC-5i cells IC90 (HBEC-5i cells) | Hemolytic activity HC10 (human RBCs [4]) | Hemolytic activity HC50 (human RBCs [4]) | Hemolytic activity HC90 (human RBCs [4]) | Translocation (%) ([2]; unlabeled peptide, quantified by HPLC (AUC, UV 220 nm)) | Hemolysis of RBCs, in words (human RBCs [4]; human RBCs, up to 100 μM, 24 h) | Cytotoxicity MDA-MB-231 cells IC10 (MDA-MB-231 cells) | IC90 at 24 h [5] | IC50 at 24 h [5] | IC50 (HBEC-5i cells)
1 | CC[C@H](C)[C@H](NC(=O)CNC(=O)[C@H](C)NC(=O)c1ccc2c(c1)C(=O)OC21c2ccc(O)cc2Oc2cc(O)ccc21)C(=O)N[C@@H](CC(C)C)C(=O)N[C@@H](CCCCN)C(=O)N[C@@H](CCCNC(=N)N)C(=O)N[C@@H](Cc1c[nH]c2ccccc12)C(N)=O [CF-PepH3] (5FAM-AGILKRW-NH2) | >200 µM | >200 µM | >200 µM | 57.09 ± 2.43% | >200 µM | > 200 µM |  |  |  |  |  |  |  |  |  | 
2 | C[C@@H](O)[C@H](NC(=O)CNC(=O)[C@H](CO)NC(=O)c1ccc2c(c1)C(=O)OC21c2ccc(O)cc2Oc2cc(O)ccc21)C(=O)N[C@@H](CCC(N)=O)C(=O)N[C@@H](CCC(=O)O)C(=O)N[C@@H](CCC(=O)O)C(=O)N[C@@H](Cc1ccc(O)cc1)C(N)=O [CF-PepNeg] (5FAM-SGTQEEY-NH2) |  |  |  | 56.01 ± 3.49% | >200 µM | > 200 µM |  |  |  |  |  |  |  |  |  | 
3 | CC[N+]1=C(C=CC=C2N(CCCCCC(=O)N[C@@H](CO)C(=O)NCC(=O)N[C@H](C(=O)N[C@@H](CCC(N)=O)C(=O)N[C@@H](CCC(=O)O)C(=O)N[C@@H](CCC(=O)O)C(=O)N[C@@H](Cc3ccc(O)cc3)C(N)=O)[C@@H](C)O)c3ccccc3C2(C)C)C(C)(C)c2ccccc21 [Q570-PepNeg] (X1-SGTQEEY-NH2) |  |  |  | 48.89 ± 3.05% | >200 µM | > 200 µM |  |  |  |  |  |  |  |  |  | 
4 | CCN(CC)c1ccc2c(-c3ccccc3C(=O)N[C@@H](CO)C(=O)NCC(=O)N[C@H](C(=O)N[C@@H](CCC(N)=O)C(=O)N[C@@H](CCC(=O)O)C(=O)N[C@@H](CCC(=O)O)C(=O)N[C@@H](Cc3ccc(O)cc3)C(N)=O)[C@@H](C)O)c3ccc(=[N+](CC)CC)cc-3oc2c1 [RhB-PepNeg] (RhodamineB-SGTQEEY-NH2) |  |  |  | 51.57 ± 2.43% | >200 µM | > 200 µM | >200 µM | >200 µM | >200 µM | >200 µM |  |  |  |  |  | 
5 | AGILKRW-NH2 [PepH3] |  |  |  |  | >200 µM | > 200 µM | >200 µM | >200 µM | >200 µM | >200 µM | 55.15 ± 3.16% | non-hemolytic |  |  |  | 
6 | KKRLKKIFKKPMVIGVTIPF-NH2 [Ctn[15-34]] |  |  |  |  |  |  |  | >200 µM | >200 µM | >200 µM |  |  | 4.76 ± 1.56 µM | > 200 µM | > 200 µM | 
7 | TF3-AGILKRW-amide [TF3-PepH3] |  |  |  | 56.74 ± 3.89% | 184.9 ± 6.57 µM |  | >200 µM | >200 µM | >200 µM | >200 µM |  |  |  |  |  | > 200 µM
8 | TF3-SGTQEEY-amide [TF3-PepNeg] |  |  |  | 53.69 ± 2.94% | >200 µM |  | >200 µM | >200 µM | >200 µM | >200 µM |  |  |  |  |  | > 200 µM
9 | WRRRYRRWRRRRRWRRRPRR-NH2 [vCPP2319] |  |  |  |  |  |  |  | >200 µM | >200 µM | >200 µM |  |  | 1.22 ± 0.52 µM | 20.6 ± 2.1 µM | 5.02 ± 1.04 µM | 
